In brackets after ≈: the same amount, converted by molar mass.
Experiments:
Apis mellifera = conditions: acute; duration: 48 hours; oral; unspecified; mortality
Bibionidae = conditions: chronic/long-term; duration: 28 days; development
Colinus virginianus = conditions: for LD50: acute, oral
Cyprinus carpio = conditions: acute; duration: 96 hours; mortality
Daphnia magna = conditions: chronic/long-term; duration: 21 days; reproduction
Mus musculus = conditions: chronic; duration: 18 months; histopathology: neoplastic
Oryctolagus sp. = conditions: reproduction developmental; body weight
Pimephales promelas = conditions: chronic/long-term; duration: 28 days; growth
Tagia sp. = conditions: mortality
Aphidius rhopalosiphi = experiment: LR50; higher = less toxic; conditions: acute; duration: 48 hours; mortality
Typhlodromus pyri = experiment: LR50; higher = less toxic; conditions: acute; duration: 7 days; mortality

Compound: Cc1c(Br)c2ccc(F)cc2n1S(=O)(=O)c1ncn(S(=O)(=O)N(C)C)n1 [Amisulbrom]
- LD50 (Apis mellifera): > 100 µg/piece
- NOEC (Bibionidae): 0.111 mg/L
- LD50 (Colinus virginianus): > 2000 mg/kg-day
- LD50 (Colinus virginianus; diet): > 1080 mg/kg-day
- NOEC (Colinus virginianus; reproduction developmental): 34.2 mg/kg-day
- LC50 (Cyprinus carpio): 0.0229 µg/mL (≈ 0.0491 µM)
- NOEC (Daphnia magna): 0.0197 mg/L
- NOAEL (Mus musculus): 11.6 mg/kg-day
- NOAEL (Oryctolagus sp.): 30 mg/kg-day
- NOEC (Pimephales promelas): 0.037 mg/L
- LD50 (Rattus norvegicus; acute, oral): > 5000 mg/kg-day
- NOAEL (Rattus norvegicus; chronic, duration: 2 years, histopathology: neoplastic): 11.1 mg/kg-day
- NOAEL (Rattus norvegicus; reproduction developmental, reproduction): 48.5 mg/kg-day
- LC50 (Tagia sp.; acute, duration: 14 days): > 1000 mg/kg
- NOEC (Tagia sp.; chronic/long-term, duration: 28 days): 93.7 mg/kg
- LR50 (Aphidius rhopalosiphi): > 1000 g/ha
- LR50 (Typhlodromus pyri): > 1000 g/ha

From EPA's ToxValDB 9.5 (doi:10.2903/j.efsa.2014.3237)
